We go through 1 molecule from article PMC7916669, “Chemical Constituent Profiling of Phyllostachys heterocycla var. Pubescens with Selective Cytotoxic Polar Fraction through EGFR Inhibition in HepG2 Cells” (Molecules, 2021).

The target of this test is T1, EGFR (epidermal growth factor receptor tyrosine kinase) (Homo sapiens, UniProt P00533).
T1 construct: EGFR cytoplasmic domain (EGFR-CD, amino acids 645–1186), (His)6-tagged
The test can be described thus: EGFR-TK autophosphorylation assay, DELFIA/time-resolved fluorometry, recombinant enzyme. The format is biochemical. As to conditions: read-out: In Vitro EGFR Activity(nM) *.

T1 sequence (P00533 669-1210): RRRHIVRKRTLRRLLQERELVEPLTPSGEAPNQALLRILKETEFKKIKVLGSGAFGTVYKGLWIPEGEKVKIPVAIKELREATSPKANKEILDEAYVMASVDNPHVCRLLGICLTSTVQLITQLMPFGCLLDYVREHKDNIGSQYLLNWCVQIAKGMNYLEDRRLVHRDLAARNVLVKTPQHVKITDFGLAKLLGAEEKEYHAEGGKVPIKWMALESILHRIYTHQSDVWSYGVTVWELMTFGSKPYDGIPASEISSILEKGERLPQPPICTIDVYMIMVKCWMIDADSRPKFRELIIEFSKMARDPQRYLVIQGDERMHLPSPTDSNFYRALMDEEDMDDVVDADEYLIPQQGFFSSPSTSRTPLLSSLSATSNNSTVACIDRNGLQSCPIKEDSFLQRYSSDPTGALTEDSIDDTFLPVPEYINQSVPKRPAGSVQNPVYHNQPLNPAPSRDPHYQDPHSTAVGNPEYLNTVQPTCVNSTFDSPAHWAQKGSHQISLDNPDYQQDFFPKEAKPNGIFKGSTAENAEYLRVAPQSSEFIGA

With `COC(=O)/C=C/c1ccc(O)cc1OC` [compound 1, 7-hydroxy, 5-methoxy, methyl cinnamate], the IC50 stood at 98.6 nM.
